Measurements as given in patent US20100099561A1, “HETEROBICYCLIC ALKYLTHIO-BRIDGED ISOXAZOLINES” (E.I. DU PONT DE NEMOURS AND COMPANY, priority 2008, published 2010).

What was measured:
Type in all cases: in vivo
rice (Oryza sativa) = test: Test B flooded paddy test, rice; conditions: Flood, scale 0 to 100
How it was run: (§1)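 Rice, umbrella sedge, ducksalad and barnyardgrass at 2-leaf stage; pots flooded to 3 cm, compounds applied into paddy water, depth held throughout. Greenhouse 13 to 15 days, then visual rating vs untreated controls on 0–100 scale (0 no effect, 100 complete control); dash means no test result.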

[1] = tested on: johnsongrass (Sorghum halepense); test: Test B preemergence, johnsongrass; conditions: scale 0 to 100
From the text: (§2) Seeds of plant species selected from blackgrass (Alopecurus myosuroides), downy bromegrass (Bromus tectorum), green foxtail (Setaria viridis), Italian ryegrass (Lolium multiflorum), wheat (Triticum aestivum), wild oat (Avena fatua), catchweed bedstraw (Galium aparine), bermudagrass (Cynodon dactylon), Surinam grass (Brachiaria decumbens), cocklebur (Xanthium strumarium), corn (Zea mays), large crabgrass (Digitaria sanguinalis), woolly cupgrass (Eriochloa villosa), giant foxtail (Setaria faberii), goosegrass (Eleusine indica), johnsongrass (Sorghum halepense), kochia (Kochia scoparia), lambsquarters (Chenopodium album), morningglory (Ipomoea coccinea), nightshade (eastern black nightshade, Solanum ptycanthum), yellow nutsedge (Cyperus esculentus), pigweed (Amaranthus retroflexus), ragweed (common ragweed, Ambrosia elatior), soybean (Glycine max), sunflower (common oilseed sunflower, Helianthus annuus), Russian thistle (Salsola kali), and velvetleaf (Abutilon theophrasti) were planted into a blend of loam soil and sand and treated preemergence with test compounds formulated in a non-phytotoxic solvent mixture which included a surfactant. Treated plants and controls were maintained in a greenhouse for 13 to 15 days, after which time all species were compared to controls and visually evaluated. Plant response ratings, summarized in Table B, are based on a scale of 0 to 100 where 0 is no effect and 100 is complete control. A dash (-) response means no test result.

[2] = tested on: lambsquarters (Chenopodium album); test: Test B preemergence, lambsquarters; conditions: scale 0 to 100
From the text: as §2

[3] = tested on: velvetleaf (Abutilon theophrasti); test: Test A postemergence, velvetleaf; conditions: 0 to 100 scale (0 no effect, 100 complete control)
How it was run: (§3)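 Each compound, in a non-phytotoxic solvent mixture with surfactant, is applied to soil at planting and, concurrently, to young one- to two-leaf plants. After approximately ten greenhouse days, visual response is rated 0 (no effect) to 100 (complete control) against untreated controls.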

corn (Zea mays) = test: Test A postemergence, corn; conditions: 0 to 100 scale (0 no effect, 100 complete control)
How it was run: as §3

[4] = tested on: pigweed (Amaranthus retroflexus); test: Test B preemergence, pigweed; conditions: scale 0 to 100
From the text: as §2

[5] = tested on: wheat (Triticum aestivum); test: Test A postemergence, wheat; conditions: 0 to 100 scale (0 no effect, 100 complete control)
How it was run: as §3

[6] = tested on: morningglory (Ipomoea spp.); test: Test A postemergence, morningglory; conditions: 0 to 100 scale (0 no effect, 100 complete control)
How it was run: as §3

[7] = tested on: morningglory (Ipomoea coccinea); test: Test B preemergence, morningglory; conditions: scale 0 to 100
From the text: as §2

[8] = tested on: ragweed (common ragweed, Ambrosia elatior); test: Test B preemergence, ragweed; conditions: scale 0 to 100
From the text: as §2

[9] = tested on: wheat (Triticum aestivum); test: Test B preemergence, wheat; conditions: Preemergence, scale 0 to 100
From the text: as §2

wild oat (Avena fatua) = test: Test B preemergence, wild oat; conditions: scale 0 to 100
From the text: as §2

[10] = tested on: yellow nutsedge (Cyperus esculentus); test: Test B preemergence, yellow nutsedge; conditions: scale 0 to 100
From the text: as §2

[11] = tested on: blackgrass (Alopecurus myosuroides); test: Test B preemergence, blackgrass; conditions: scale 0 to 100
From the text: as §2

[12] = tested on: ducksalad (Heteranthera limosa); test: Test B flooded paddy test, ducksalad; conditions: Flood, scale 0 to 100
How it was run: as §1

[13] = tested on: pigweed (Amaranthus retroflexus); test: Test A postemergence, pigweed; conditions: 0 to 100 scale (0 no effect, 100 complete control)
How it was run: as §3

[14] = tested on: goosegrass (Eleusine indica); test: Test B preemergence, goosegrass; conditions: scale 0 to 100
From the text: as §2

[15] = tested on: giant foxtail (Setaria faberii); test: Test B preemergence, giant foxtail; conditions: scale 0 to 100
From the text: as §2

[16] = tested on: sunflower (common oilseed sunflower, Helianthus annuus); test: Test B preemergence, sunflower; conditions: Preemergence, scale 0 to 100
From the text: as §2

## CC1(C)CC(S(=O)(=O)Cc2c(C(F)(F)Cl)nc3n(c2=O)CCC3)=NO1 [Compound 18]
Rice (Oryza sativa); 31 g ai/ha
  Plant response rating, Rice: 0
Rice (Oryza sativa); 62 g ai/ha
  Plant response rating, Rice: 0
Rice (Oryza sativa); 125 g ai/ha
  Plant response rating, Rice: 0
Rice (Oryza sativa); 250 g ai/ha
  Plant response rating, Rice: 0
[1]; 16 g ai/ha
  Plant response rating, Johnsongrass: 15
[1]; 31 g ai/ha
  Plant response rating, Johnsongrass: 20
[1]; 62 g ai/ha
  Plant response rating, Johnsongrass: 60
[1]; 125 g ai/ha
  Plant response rating, Johnsongrass: 85
[2]; 16 g ai/ha
  Plant response rating, Lambsquarters: 0
[2]; 31 g ai/ha
  Plant response rating, Lambsquarters: 0
[2]; 62 g ai/ha
  Plant response rating, Lambsquarters: 75
[2]; 125 g ai/ha
  Plant response rating, Lambsquarters: 85
[3]; 125 g ai/ha
  Plant response rating, Velvetleaf: 30
[3]; 500 g ai/ha
  Plant response rating, Velvetleaf: 60
Corn (Zea mays); 125 g ai/ha
  Plant response rating, Corn: 0
Corn (Zea mays); 500 g ai/ha
  Plant response rating, Corn: 40
[4]; 16 g ai/ha
  Plant response rating, Pigweed: 0
[4]; 31 g ai/ha
  Plant response rating, Pigweed: 100
[4]; 62 g ai/ha
  Plant response rating, Pigweed: 100
[4]; 125 g ai/ha
  Plant response rating, Pigweed: 100
[5]; 125 g ai/ha
  Plant response rating, Wheat: 0
[5]; 500 g ai/ha
  Plant response rating, Wheat: 60
[6]; 125 g ai/ha
  Plant response rating, Morningglory: 30
[6]; 500 g ai/ha
  Plant response rating, Morningglory: 60
[7]; 16 g ai/ha
  Plant response rating, Morningglory: 0
[7]; 31 g ai/ha
  Plant response rating, Morningglory: 0
[7]; 62 g ai/ha
  Plant response rating, Morningglory: 0
[7]; 125 g ai/ha
  Plant response rating, Morningglory: 45
[8]; 16 g ai/ha
  Plant response rating, Ragweed: 0
[8]; 31 g ai/ha
  Plant response rating, Ragweed: 0
[8]; 62 g ai/ha
  Plant response rating, Ragweed: 0
[8]; 125 g ai/ha
  Plant response rating, Ragweed: 0
[9]; 16 g ai/ha
  Plant response rating, Wheat: 0
[9]; 31 g ai/ha
  Plant response rating, Wheat: 0
[9]; 62 g ai/ha
  Plant response rating, Wheat: 50
Wild oat (Avena fatua); 16 g ai/ha
  Plant response rating, Oat, Wild: 0
Wild oat (Avena fatua); 31 g ai/ha
  Plant response rating, Oat, Wild: 0
Wild oat (Avena fatua); 62 g ai/ha
  Plant response rating, Oat, Wild: 0
Wild oat (Avena fatua); 125 g ai/ha
  Plant response rating, Oat, Wild: 45
[10]; 16 g ai/ha
  Plant response rating, Nutsedge, Yellow: 0
[10]; 31 g ai/ha
  Plant response rating, Nutsedge, Yellow: 0
[10]; 62 g ai/ha
  Plant response rating, Nutsedge, Yellow: 20
[10]; 125 g ai/ha
  Plant response rating, Nutsedge, Yellow: 45
[11]; 16 g ai/ha
  Plant response rating, Blackgrass: 0
[11]; 31 g ai/ha
  Plant response rating, Blackgrass: 0
[11]; 62 g ai/ha
  Plant response rating, Blackgrass: 10
[11]; 125 g ai/ha
  Plant response rating, Blackgrass: 98
[12]; 31 g ai/ha
  Plant response rating, Ducksalad: 0
[12]; 62 g ai/ha
  Plant response rating, Ducksalad: 0
[12]; 125 g ai/ha
  Plant response rating, Ducksalad: 0
[12]; 250 g ai/ha
  Plant response rating, Ducksalad: 0
[13]; 125 g ai/ha
  Plant response rating, Pigweed: 30
[13]; 500 g ai/ha
  Plant response rating, Pigweed: 40
[14]; 16 g ai/ha
  Plant response rating, Goosegrass: 0
[14]; 31 g ai/ha
  Plant response rating, Goosegrass: 95
[14]; 62 g ai/ha
  Plant response rating, Goosegrass: 98
[14]; 125 g ai/ha
  Plant response rating, Goosegrass: 98
[15]; 16 g ai/ha
  Plant response rating, Foxtail, Giant: 0
[15]; 31 g ai/ha
  Plant response rating, Foxtail, Giant: 80
[15]; 62 g ai/ha
  Plant response rating, Foxtail, Giant: 85
[15]; 125 g ai/ha
  Plant response rating, Foxtail, Giant: 98
[16]; 16 g ai/ha
  Plant response rating, Sunflower: 0
[16]; 31 g ai/ha
  Plant response rating, Sunflower: 0
[16]; 62 g ai/ha
  Plant response rating, Sunflower: 0
[16]; 125 g ai/ha
  Plant response rating, Sunflower: 0
